According to patent US8278309B2, “Synthetic mimetics of host defense and uses thereof” (priority 2008, dated 2012):
Structures can show the parent of a compound that is named as a salt. Where two headings read alike, the source gives them in different places.

Columns and labels:
S. aureus (ATCC 13709) = assay: Mouse sepsis model, S. aureus infection; assay type: in vivo; details: for protection from mortality: 1 & 7 hr after inoculation, observed 6 days
Description: Sterile saline, vancomycin, or Compound A were administered to separate groups of 8-week old female CD-1 mice (8 mice/group) 1 and 7 hours after i.p. injections of S. aureus (ATCC 13709, 5×10^7 cfu/mL in 5% mucin, 0.5 mL/mouse). Compound A was dissolved in 50%/50% v/v sterile USP purified water/TBS. A suspension of S. aureus was prepared from colonies transferred from the TSA plate to sterile PBS. An aliquot of the stock suspension was added to 5% mucin for a final concentration of about 5×10^7 cfu/mL.

[1] = Hemolysis assay using human erythrocytes; assay type: cell-based; details: human, pH 7.4
Description: (§4) Pooled whole human blood was centrifuged to separate the red blood cells (RBC). The isolated RBCs were rinsed and diluted in Tris-buffered saline (TBS buffer, pH 7.4) to obtain a 0.22% RBC stock suspension. 5 μL of Compound A stock solution was added to 45 μL of RBC suspension and incubated with shaking for 1 hour at 37° C. At the conclusion of the incubation time, samples were centrifuged and 30 μL of the supernatant was added to 100 μL of water. OD414 measurements were read for hemoglobin concentration. […] EC50 values were determined as described above.

[2] = tested on: human erythrocytes (RBCs); assay: Hemolysis assay using human erythrocytes; assay type: cell-based; details: vs S. aureus MIC
Description: as §4

[3] = Saturation solubility in excipients; assay type: physicochemical; details: for solubility: thermodynamic from solid
NIH/3T3 cells = assay: Cytotoxicity colorimetric assay, NIH/3T3; assay type: cell-based, mouse; details: vs S. aureus MIC
Description: (§1) Cytotoxicity of Compound A was evaluated in a colorimetric assay using a transformed human liver cell line (HepG2, HB-8065) and an embryonic mouse cell line (NIH/3T3 cells, CRL-1658). This assay measures the bioreduction of a novel tetrazolium compound to a soluble formazan product by viable cells. HepG2 cells were seeded in 96 well plates at 2×10^4 cells/well in MEM medium with 10% fetal bovine serum (FBS) 24 hours prior to use. NIH/3T3 cells were seeded in 96 well plates at 2×10^4 cells/well in DMEM medium with 10% bovine calf serum (BCS) 24 hours prior to use. Cell monolayers were rinsed in serum-free media and incubated for one hour with Compound A in serum-free media. After incubation, the media was replaced with serum supplemented media and live cells were measured using the Cell Titer 96 Aqueous […] Assay kit (Promega, Madison, Wis.). EC50 values were determined using a four parameter logistic equation: Y=Bottom+(Top-Bottom)/(1+10^((LogEC50−X)*HillSlope)).

[4] = Cytotoxicity colorimetric assay, NIH/3T3; assay type: cell-based, mouse; details: mouse, NIH/3T3 cells; one hour in serum-free media
Description: as §1

S. aureus (ATCC 13507) = assay: Rat thigh burden model; assay type: in vivo; details: for reduction of bacterial load in comparison to inoculated controls / reduction relative to inoculum levels at 1 hour post-infection: 10 mg/kg/dose, 20 mg/kg total dose
Description: For each experiment, female 8-9-week old femoral vein cannulated Crl:CD(SD) rats were made neutropenic with cyclophosphamide (150 mg/kg, i.p.) on days 4 and 1 before i.m. inoculation with S. aureus (ATCC 13507). A suspension of S. aureus was prepared from colonies obtained from an overnight culture, placed in PBS, and adjusted to approximately 10^7 cfu/mL with the aid of a spectrophotometer. Each rat was injected 0.2 mL of inoculum into the thigh muscle of the right hind leg. Thighs were harvested at 25 hours after inoculation and processed to determine cfu/thigh. Compound A was given by i.v. bolus injection into a tail vein or 1-hour i.v. infusion, or 4-hour i.v. infusion via the femoral vein cannulae at different time intervals following inoculation. Separate inoculation control groups were included in each experiment, and vancomycin groups were included as comparative agents in the first and second experiments. Each group, including the controls and comparative agent, consisted of 4 rats.

Staph. aureus (MRSA) = assay: MIC broth microdilution, Gram-positive clinical isolates; assay type: cell-based; details: Staphylococcus aureus; Staph. aureus (MRSA); 2-3 isolates/organism; read-out: MIC
Description: (§2) Compound A was evaluated in vitro in accordance with defined CLSI documents specific to the organisms (aerobic, anaerobic or yeast) tested in this study. Ampicillin, ceftazidime, cefuroxime, ciprofloxacin, linezolid, and vancomycin were tested alongside as comparator agents for aerobic bacteria; clindamycin and metronidazole were tested as comparators for anaerobes; fluconazole was tested as a comparator for yeast isolates. Stock solutions of Compound A were prepared in dimethyl sulfoxide (DMSO). Ampicillin, ceftazidime, cefuroxime, ciprofloxacin, linezolid, vancomycin, metronidazole, clindamycin, and fluconazole were prepared each according to its manufacturer's guideline.
(§3) Minimum inhibitory concentrations (MICs) in μg/ml were determined according to CLSI guideline M7-A7 by broth microdilution. All aerobes were tested using Mueller-Hinton broth medium with the exception of Streptococcus spp., which were tested using cation-adjusted Mueller-Hinton broth supplemented with 2-5% lysed horse blood.

Staph. saprophyticus = assay: as above; assay type: cell-based; details: Staphylococcus saprophyticus; Staph. saprophyticus; 2-3 isolates/organism; read-out: MIC
Description: as §2, §3

Staph. spp. (coagulase−) = assay: as above; assay type: cell-based; details: Staph. spp. (coagulase−); 2-3 isolates/organism; read-out: MIC
Description: as §2, §3

Strept. pyogenes = assay: as above; assay type: cell-based; details: Streptococcus pyogenes; Strept. pyogenes; 2-3 isolates/organism; read-out: MIC
Description: as §2, §3

Strept. pneumoniae = assay: as above; assay type: cell-based; details: Streptococcus pneumoniae; Strept. pneumoniae; 2-3 isolates/organism; read-out: MIC
Description: as §2, §3

Strept. viridians = assay: as above; assay type: cell-based; details: Strept. viridians; 2-3 isolates/organism; read-out: MIC
Description: as §2, §3

Strept. agalactiae = assay: as above; assay type: cell-based; details: Streptococcus agalactiae; Strept. agalactiae; 2-3 isolates/organism; read-out: MIC
Description: as §2, §3

Entero. faecalis = assay: as above; assay type: cell-based; details: Enterococcus faecalis; Entero. faecalis; 2-3 isolates/organism; read-out: MIC
Description: as §2, §3

Staph. spidermidis = assay: as above; assay type: cell-based; details: Staph. spidermidis; 2-3 isolates/organism; read-out: MIC
Description: as §2, §3

[5] = rat, in vivo, iv
Description: Maximum tolerated dose (MTD) determinations were made in ascending/descending dose studies in mice and rats. Compound A was administered by either i.v. bolus injection in the tail vein of mice and rats or by i.v. infusion via catheter in the femoral vein of rats. At each dose, two to three animals were administered compound and clinical signs were recorded over a 4 to 7 day period. Gross necropsy was performed at the conclusion of the study.

## N=C(N)NCCCCC(=O)Nc1cc(C(F)(F)F)cc(NC(=O)c2cc(C(=O)Nc3cc(C(F)(F)F)cc(NC(=O)CCCCNC(=N)N)c3O[C@H]3CCNC3)ncn2)c1O[C@H]1CCNC1 [Compound A, pyrimidine-4,6-dicarboxylic acid bis-{[3-(5-guanidino-pentanoylamino)-2-((R)-pyrrolidin-3-yloxy)-5-trifluoromethyl-phenyl]-amide}tetrahydrochloride]
S. aureus (ATCC 13709); 2×5 mg/kg i.v.
  protection from mortality: full protection
S. aureus (ATCC 13709); 2×10 mg/kg i.v.
  protection from mortality: full protection
S. aureus (ATCC 13709); 3, 5, 10 mg/kg/dose i.v.
  efficacy relative to vancomycin treatment group: comparable to the vancomycin treatment group
[1]
  EC50 at 1 h: > 500 µg/mL
[2]
  Selectivity (EC50/MIC) RBCs: >500
[3]; 0.9% and 1.2% sodium chloride solution
  behaviour of formulation at saturation: formed a viscous yellow gel
[3]; 15% w/v glycerin in purified water, 25 °C, aqueous with cosolvent or surfactant or cyclodextrin, 15% w/v glycerin in purified water, read-out: saturation solubility at 25° C. (free base)
  solubility: 63.5 mg/mL
[3]; 15% w/v propylene glycol in purified water, 25 °C, aqueous with cosolvent or surfactant or cyclodextrin, 15% w/v propylene glycol in purified water, read-out: saturation solubility at 25° C. (free base)
  solubility: 64.9 mg/mL
[3]; 20% w/v Kleptose in purified water, 25 °C, aqueous with cosolvent or surfactant or cyclodextrin, 20% w/v Kleptose in purified water, read-out: saturation solubility at 25° C. (free base)
  solubility: 79.7 mg/mL
[3]; 20-50% w/v propylene glycol in saline
  behaviour of formulation at saturation: formation of a viscous yellow gel
[3]; 25% w/v Captisol in purified water, 25 °C, aqueous with cosolvent or surfactant or cyclodextrin, 25% w/v Captisol in purified water, read-out: saturation solubility at 25° C. (free base)
  solubility: 64.3 mg/mL
[3]; 30% w/v glycerin in purified water, 25 °C, aqueous with cosolvent or surfactant or cyclodextrin, 30% w/v glycerin in purified water, read-out: saturation solubility at 25° C. (free base)
  solubility: 63.1 mg/mL
[3]; 30% w/v propylene glycol and 5 w/v ethanol in purified water, 25 °C, aqueous with cosolvent or surfactant or cyclodextrin, 30% w/v propylene glycol and 5 w/v ethanol in purified water, read-out: saturation solubility at 25° C. (free base)
  solubility: 43.9 mg/mL
[3]; 30% w/v propylene glycol in purified water, 25 °C, aqueous with cosolvent or surfactant or cyclodextrin, 30% w/v propylene glycol in purified water, gelled during centrifugation but liquefied on standing, read-out: saturation solubility at 25° C. (free base)
  solubility: 59.1 mg/mL
[3]; 40% w/v Kleptose in purified water, 25 °C, aqueous with cosolvent or surfactant or cyclodextrin, 40% w/v Kleptose in purified water, read-out: saturation solubility at 25° C. (free base)
  solubility: 102 mg/mL
[3]; 50% w/v glycerin in purified water, 25 °C, aqueous with cosolvent or surfactant or cyclodextrin, 50% w/v glycerin in purified water, read-out: saturation solubility at 25° C. (free base)
  solubility: 56.8 mg/mL
[3]; 50% w/v propylene glycol in purified water, 25 °C, aqueous with cosolvent or surfactant or cyclodextrin, 50% w/v propylene glycol in purified water, read-out: saturation solubility at 25° C. (free base)
  solubility: 74.7 mg/mL
[3]; Citric Acid/Sodium Citrate (pH 5)
  saturation solubility at 25° C. (free base): 11.2 mg/mL
[3]; DMA, 25 °C, organic solvent or mixture, DMA, read-out: saturation solubility at 25° C. (free base)
  solubility: 0.6 mg/mL
[3]; PEG 400, 25 °C, organic solvent or mixture, PEG 400, read-out: saturation solubility at 25° C. (free base)
  solubility: 18.5 mg/mL
[3]; Tris(hydroxymethyl)aminomethane buffer, 25 °C, pH 7.4, aqueous buffer, pH 7.4, read-out: solubility
  solubility: 61.4 mg/mL
[3]; benzyl alcohol, 25 °C, organic solvent or mixture, Benzyl alcohol, read-out: saturation solubility at 25° C. (free base)
  solubility: 1.83 mg/mL
[3]; citric acid/sodium citrate buffer, 25 °C, pH 3, aqueous buffer, Citric Acid/Sodium Citrate (pH 3), read-out: saturation solubility at 25° C. (free base)
  solubility: 65.5 mg/mL
[3]; citric acid/sodium citrate buffer, 25 °C, pH 5, aqueous buffer, Citric Acid/Sodium Citrate (pH 5), read-out: saturation solubility at 25° C. (free base)
  solubility: 12.1 mg/mL
[3]; ethanol, 25 °C, organic solvent or mixture, Ethanol, read-out: saturation solubility at 25° C. (free base)
  solubility: 1.13 mg/mL
[3]; glycerin, 25 °C, organic solvent or mixture, Glycerin, read-out: saturation solubility at 25° C. (free base)
  solubility: 53 mg/mL
[3]; propylene glycol, 25 °C, organic solvent or mixture, Propylene Glycol, read-out: saturation solubility at 25° C. (free base)
  solubility: 90 mg/mL
[3]; purified water, 25 °C, water, Purified Water, read-out: saturation solubility at 25° C. (free base)
  solubility: 65 mg/mL
[3]; tris(hydroxymethyl)aminomethane HCl buffer, 25 °C, pH 7, aqueous buffer, Tris(hydroxymethyl)amino methane HCl (pH 7.0), read-out: saturation solubility at 25° C. (free base)
  solubility: 61.4 mg/mL
NIH/3T3 cells
  Selectivity (EC50/MIC) 3T3: 430
[4]
  EC50 at 1 h: 430 µg/mL
S. aureus (ATCC 13507); 1 hour i.v. infusions
  reduction of bacterial load in comparison to inoculated controls: 3.0 logs
  reduction relative to inoculum levels at 1 hour post-infection: ~2.0 logs
S. aureus (ATCC 13507); i.v. bolus
  reduction of bacterial load in comparison to inoculated controls: 3.2 logs
  reduction relative to inoculum levels at 1 hour post-infection: approximately 2.2 logs
S. aureus (ATCC 13507); rat thigh burden
  efficacy relative to vancomycin: comparable to vancomycin
Staph. aureus (MRSA)
  MIC: 0.5 to 1 µg/mL
Staph. saprophyticus
  MIC: 0.25 to 0.5 µg/mL
Staph. spp. (coagulase−)
  MIC: 0.25 to 0.5 µg/mL
Strept. pyogenes
  MIC: 1 to 4 µg/mL
Strept. pneumoniae
  MIC: 4 to 8 µg/mL
Strept. viridians
  MIC: 2 to 8 µg/mL
Strept. agalactiae
  MIC: 2 µg/mL
Entero. faecalis
  MIC: 1 µg/mL
Staph. spidermidis
  MIC: 0.25 to 0.5 µg/mL
[5]
  MTD: >24 mg/kg
